In brackets after ≈: the same amount, converted by molar mass. Read-outs that look alike come from different tables or passages of the source.
What was measured:
M. avium 11 [1] = assay: Dose-response growth inhibition (broth microdilution); format: cell-based, Mycobacterium avium; conditions: for MIC50: read-out: MIC50
M. tuberculosis H37Rv = assay: as above; format: cell-based; conditions: Mycobacterium tuberculosis, 168 h, M. tuberculosis H37Rv, 7 days; for MIC50: concentration that inhibits 50% of growth, read-out: MIC50; for MIC90: concentration that inhibits 90% of growth, read-out: MIC90
M. abscessus Bamboo [2] = assay: Bactericidal assay (CFU, fold kill); format: cell-based, Mycobacterium abscessus; conditions: for Fold kill at MIC90: 10^7 CFU/mL exposed to MIC90 for 3 days, CFU vs starting inoculum
M. abscessus Bamboo [3] = assay: Dose-response growth inhibition (broth microdilution); format: cell-based, Mycobacterium abscessus; conditions: Mycobacteroides abscessus; for MIC50: read-out: MIC50
[4] = rat, cited from earlier work
M. avium 11 [5] = assay: Bactericidal assay (CFU, fold kill); format: cell-based, Mycobacterium avium; conditions: for Fold kill at MIC90: 10^7 CFU/mL exposed to MIC90 for 4 days, CFU vs starting inoculum
M. tuberculosis = tested on: M. tuberculosis; parameters: method as in http://www.pathogenbox.org/; conditions: as reported by MMV, ref http://www.pathogenbox.org/; cited from earlier work
[6] = Mycobacterium avium, 96 h, M. avium 11, 4 days
[7] = Mycobacterium avium, 96 h, M. avium 11, 4 days, read-out: MIC90
[8] = 72 h, M. abscessus Bamboo, 3 days
[9] = 72 h, M. abscessus Bamboo, 3 days, read-out: MIC90
[10] = IV 1 mg/kg, mean n = 2, ref http://www.pathogenbox.org/

SMILES | MIC50 (M. avium 11 [1]; [6]) | MIC90 (M. avium 11 [1]; [7]) | MIC50 (M. tuberculosis H37Rv) | MIC90 (M. tuberculosis H37Rv) | Fold kill at MIC90 (M. abscessus Bamboo [2]) | MIC50 (M. abscessus Bamboo [3]; [8]) | MIC90 (M. abscessus Bamboo [3]; [9]) | AUCinf ([4]; in vivo, iv, 1 mg/kg) | AUClast ([4]; in vivo, iv, 1 mg/kg) | C0 ([4]; in vivo, iv, 1 mg/kg) | Cl ([4]; in vivo, iv, 1 mg/kg) | AUCinf ([4]; in vivo, po, 5 mg/kg) | AUClast ([4]; in vivo, po, 5 mg/kg) | tmax ([4]; in vivo, po, 5 mg/kg) | %F ([4]; in vivo) | Fold kill at MIC90 (M. avium 11 [5]) | Reported MIC (M. tuberculosis) | also measured
COc1ccc(OC)c(NCc2ccc3nc(N)nc(N)c3c2Cl)c1 [MMV675968] | 0.2 µM (≈ 0.072 µg/mL) | 3 µM (≈ 1.08 µg/mL) | < 0.2 µM | 4 µM (≈ 1.44 µg/mL) | NK (NK, “no kill,” i.e., CFU reduction < 10-fold at MIC90) | 10.5 µM (≈ 3.78 µg/mL) | 35 µM (≈ 12.6 µg/mL) | 900 ng·h/mL | 897 ng·h/mL | 1080 ng/mL | 18.7 mL/min/kg | 532 ng·h/mL | 504 ng·h/mL | 60 min | 11% | NK (NK, “no kill,” i.e., CFU reduction < 10-fold at MIC90) | – | –
Cc1cc(C)c2cc(C(=O)NC3CCCCCCC3)[nH]c2c1 [MMV687146] | 3 µM (≈ 0.895 µg/mL) | 9 µM (≈ 2.69 µg/mL) | < 0.2 µM | < 0.2 µM | 100 fold | 0.8 µM (≈ 0.239 µg/mL) | 2 µM (≈ 0.597 µg/mL) | 935 ng·h/mL | 798 ng·h/mL | 2270 ng/mL | 18.2 mL/min/kg | 483 ng·h/mL | 456 ng·h/mL | 45 min | 11% | NK (NK, “no kill,” i.e., CFU reduction < 10-fold at MIC90) | <0.024 µM | –
CCCCOC(=O)Nc1cc2nc(C3CCCCC3)[nH]c2cc1N1CCCC1 [MMV687730] | 5 µM (≈ 1.92 µg/mL) | 22 µM (≈ 8.46 µg/mL) | < 0.2 µM | < 0.2 µM | 10 fold | 4 µM (≈ 1.54 µg/mL) | 8.5 µM (≈ 3.27 µg/mL) | – | – | – | – | – | – | – | – | NK (NK, “no kill,” i.e., CFU reduction < 10-fold at MIC90) | 0.05 µM | AUCinf [4, 10]: 125 ng·h/mL; AUClast [4, 10]: 108 ng·h/mL; C0 [4, 10]: 444 ng/mL; Cl [4, 10]: 166 mL/min/kg; Vss [4, 10]: 15.9 L/kg; t1/2 [4, 10]: 200 min; Cmax ([4]; PO 5 mg/kg, mean n = 2, BLQ = < 1 ng/mL, ref http://www.pathogenbox.org/): NC (BLQ at all time points)
CN1CCN(CCCOc2ncc(Nc3ncc(-c4ccc(C(F)(F)F)c(F)c4)nc3C(N)=O)cn2)CC1 [MMV687812] | 25 µM (≈ 13.4 µg/mL) | > 50 µM | < 0.2 µM | 2.2 µM (≈ 1.18 µg/mL) | – | 6 µM (≈ 3.21 µg/mL) | > 50 µM | 801 ng·h/mL | 381 ng·h/mL | 265 ng/mL | 20.8 mL/min/kg | 2450 ng·h/mL | 962 ng·h/mL | 420 min | 50% | NK (NK, “no kill,” i.e., CFU reduction < 10-fold at MIC90) | 1.2 µM | Fold kill (Fold kill at MIC90) (M. abscessus Bamboo [2]; at 12 μM (80% growth inhibition), MIC90 not reached): NK^∧ (NK, “no kill,” i.e., CFU reduction < 10-fold at MIC90); MIC90 (M. abscessus Bamboo [3]; read-out: Concentration at which 80% growth inhibition was achieved (printed in MIC90 column)): 12 µM (≈ 6.41 µg/mL)
CC(=O)NC[C@H]1CN(c2ccc(-c3ccc(CNCc4cnn[nH]4)cc3)c(F)c2)C(=O)O1 [MMV688327, radezolid, reference compound] | 4 µM (≈ 1.75 µg/mL) | 35 µM (≈ 15.3 µg/mL) | 0.5 µM (≈ 0.219 µg/mL) | 2 µM (≈ 0.877 µg/mL) | NK (NK, “no kill,” i.e., CFU reduction < 10-fold at MIC90) | 3.8 µM (≈ 1.67 µg/mL) | 13 µM (≈ 5.7 µg/mL) | – | – | – | – | – | – | – | – | NK (NK, “no kill,” i.e., CFU reduction < 10-fold at MIC90) | 0.3 µM | –
CC(=O)NCC1CN(c2ccc(-c3ccc(CO)cc3)c(F)c2)C(=O)O1 (centres unmarked) [MMV688508] | 0.6 µM (≈ 0.215 µg/mL) | 8 µM (≈ 2.87 µg/mL) | < 0.2 µM | 0.3 µM (≈ 0.108 µg/mL) | NK (NK, “no kill,” i.e., CFU reduction < 10-fold at MIC90) | 2.2 µM (≈ 0.788 µg/mL) | 12 µM (≈ 4.3 µg/mL) | 156 ng·h/mL | 156 ng·h/mL | 1310 ng/mL | 280 mL/min/kg | – | 1.45 ng·h/mL | 15 min | <1% | NK (NK, “no kill,” i.e., CFU reduction < 10-fold at MIC90) | 0.4 µM | –
CC(=O)NC[C@H]1CN(c2ccc(N3CCSCC3)c(F)c2)C(=O)O1 [MMV688756, sutezolid, reference compound] | 0.4 µM (≈ 0.141 µg/mL) | 4 µM (≈ 1.41 µg/mL) | < 0.2 µM | 1.2 µM (≈ 0.424 µg/mL) | NK (NK, “no kill,” i.e., CFU reduction < 10-fold at MIC90) | 4.2 µM (≈ 1.48 µg/mL) | 25 µM (≈ 8.84 µg/mL) | – | – | – | – | – | – | – | – | NK (NK, “no kill,” i.e., CFU reduction < 10-fold at MIC90) | 1.2 µM | –
COc1ccc2nccc(NC(=O)C3CCN(CCc4ccc(Cl)cc4)CC3)c2n1 [MMV688844] | 2 µM (≈ 0.85 µg/mL) | > 50 µM | 0.2 µM (≈ 0.085 µg/mL) | 2.8 µM (≈ 1.19 µg/mL) | 100 fold | 4.5 µM (≈ 1.91 µg/mL) | 11 µM (≈ 4.67 µg/mL) | 167 ng·h/mL | 164 ng·h/mL | 116 ng/mL | 102 mL/min/kg | – | – | – | – | – | 0.4 µM | MIC90 (M. avium 11 [1]; Mycobacterium avium, 11, read-out: Concentration at which 80% growth inhibition was achieved (printed in MIC90 column)): 6 µM (≈ 2.55 µg/mL); Fold kill (Fold kill at MIC90) (M. avium 11 [5]; at 6 μM (80% growth inhibition), MIC90 not reached): NK^# (NK, “no kill,” i.e., CFU reduction < 10-fold at MIC90)
O=C(N[C@H](Cc1ccccc1)C(=O)Nc1ccccc1N1CCOCC1)c1cccs1 [MMV688845] | 0.6 µM (≈ 0.261 µg/mL) | 3 µM (≈ 1.31 µg/mL) | < 0.2 µM | 1.7 µM (≈ 0.74 µg/mL) | 10 fold | 1.5 µM (≈ 0.653 µg/mL) | 7 µM (≈ 3.05 µg/mL) | 174 ng·h/mL | 171 ng·h/mL | 716 ng/mL | 96.3 mL/min/kg | – | 3.95 ng·h/mL | 22.5 min | <1% | NK (NK, “no kill,” i.e., CFU reduction < 10-fold at MIC90) | 1.2 µM | –

Source: PMC5559473, “Screening of TB Actives for Activity against Nontuberculous Mycobacteria Delivers High Hit Rates” (Frontiers in Microbiology, 2017)
